Assay results as given in PMC5361079 (Scientific Reports, 2017).

What was measured:
hiPSC-CM syncytia = test: Spontaneous FP rate and IMP amplitude/beating rate in hiPSC-CM syncytia (RTCA CardioECR / RTCA Cardio); format: cell-based, human; details: prodrug co-administered with 0.3 μM amiodarone, steady state (4 h), spontaneously beating hiPSC-CM syncytia
Experimental: hiPSC-CMs (iCells®) from Cellular Dynamics International (CDI, Madison, WI, USA) were seeded onto 48-well CardioECR or 96-well Cardio E-Plates® (ACEA Biosciences Inc., San Diego, CA, USA) coated with 10 μg/mL fibronectin (Sigma Aldrich, Catalog# F1141) at 30,000 cells/well, following manufacturer’s recommendations. Cells were maintained in culture (37 °C, 5% CO2) for a period of 14 days with iCell Maintenance® media (CDI, Madison, WI, USA) exchanged every 2–3 days. Compound addition was only performed on or after Day 14 following cell seeding.
Compound stock solutions were prepared in 100% DMSO or H2O. On the day of compound addition, the media was exchanged with fresh iCell Maintenance® media and allowed to equilibrate for at least 3 h in the incubator. The plates were read on an xCELLigence® RTCA CardioECR or RTCA Cardio (ACEA Biosciences Inc., San Diego, CA, USA). Control pre-reads to establish a baseline were recorded for at least 45 minutes (4 reads at 15-min intervals) prior to compound addition. The compound stock solutions were diluted into iCell Maintenance® media and quickly added to the plate. The plate was continuously monitored for at least 18 h following compound addition. IMP data were sampled at 12 ms (83 Hz), while FP rate data were collected at 0.1 ms (10 KHz). Attachment, growth and viability of syncytia were monitored by means of the baseline IMP signal, as previously described. IMP and FP signals were only interpreted if the baseline IMP was maintained throughout the measurement period (usually ≤18 hrs) at ≥70% of the value before test compound application (pre-read value).

hiPSC-CMs = test: Intracellular prodrug, cleavage intermediate metabolite and NTP metabolite concentrations in hiPSC-CMs; format: in vitro ADME, human; details: hiPSC-CMs; for Intracellular Concentration, Cleavage Intermediate Metabolite / Intracellular Concentration, NTP Metabolite: BLOQ = below 17 pmol/million cells
Experimental: Approximately 18 h before dosing, iCell hiPSC-CMs were switched to iCell cardiomyocyte maintenance media free of Penicillin/Streptomycin. […] […] After the corresponding treatment, cells were washed 2x with 200 μL of ice-cold magnesium- and calcium-free PBS buffer. Cells were then lysed in 100 μL of ice-cold lysis solution (70/30 methanol/water containing 20 mM EDTA and 20 mM EGTA, pH 8) by pipetting up and down 5 times. Plates were sealed and transferred on dry ice for determination of prodrug, cleavage intermediate metabolite, and NTP metabolite concentrations. Intracellular prodrug concentrations were measured using a reversed phase HPLC- high resolution mass spectrometry method. A dimethylhexylamine based ion-pairing HPLC-MS/MS method was used to measure intracellular cleavage intermediate metabolite and NTP metabolite concentrations. Intracellular concentrations (pmol/million cells) of prodrug, cleavage intermediate metabolite, and NTP metabolite were quantitated against calibration standards of the same analytes prepared from control iCell hiPSC-CM lysates.
For prodrug analyses, full scan high resolution mass spectrometry data was collected using an Exactive™ Orbitrap mass spectrometer with an electrospray source operated in the positive ion mode. Prodrug chromatograms were extracted from full scan high resolution mass spectrometry data for the masses indicated in Supplementary Table 5. Absence of endogenous interference(s) was verified by extracting the same ion from full scan high resolution mass spectrometry chromatograms of unspiked control cell lysates. For the cleavage intermediate metabolite and NTP metabolite an electrospray MS/MS method run on a SCIEX API 4000 mass spectrometer with turboV ionspray source was used in negative ion mode monitoring the transitions indicated in Supplementary Table 5. Absence of endogenous interference(s) was verified by monitoring of the same MRM transitions for unspiked control cell lysates. Measured intracellular prodrug, cleavage intermediate metabolite, and NTP metabolite concentrations (in pmol/million cells units) were tabulated (Table 2).

[1] = tested on: conscious, male rhesus monkeys; details: intravenous infusion of MK-3682 after AMIO pretreatment; cited from earlier work
[2] = 10 μM prodrug + 0.3 μM amiodarone, 4 Hours
[3] = 10 μM prodrug + 0.3 μM amiodarone, 30 Min

Compound: CC(C)OC(=O)[C@@H](C)NP(=O)(OC[C@H]1O[C@@H](n2ccc(=O)[nH]c2=O)[C@](C)(Cl)[C@@H]1O)Oc1ccccc1 (stereo partly drawn) [MK-3682, isopropyl (2R)-2-[[[(2R,3R,4R,5R)-4-chloro-5-(2,4-dioxopyrimidin-1-yl)-3-hydroxy-4-methyl-tetrahydrofuran-2-yl]methoxy-phenoxy-phosphoryl]amino]propanoate]
- Effect on FP rate (hiPSC-CM syncytia): lack of effects
- Effect on IMP amplitude (hiPSC-CM syncytia): lack of effects
- Intracellular Concentration, Prodrug (hiPSC-CMs; [2]): 91.9 ± 12.4 pmol/million cells
- Intracellular Concentration, Cleavage Intermediate Metabolite (hiPSC-CMs; [2]): BLOQ
- Intracellular Concentration, NTP Metabolite (hiPSC-CMs; [2]): BLOQ
- Intracellular Concentration, Prodrug (hiPSC-CMs; [3]): 95.0 ± 6.7 pmol/million cells
- Intracellular Concentration, Cleavage Intermediate Metabolite (hiPSC-CMs; [3]): BLOQ
- Intracellular Concentration, NTP Metabolite (hiPSC-CMs; [3]): BLOQ
- Intracellular Concentration, Prodrug (hiPSC-CMs; 10 μM prodrug alone, 4 Hours): 100.4 ± 13.2 pmol/million cells
- Intracellular Concentration, Cleavage Intermediate Metabolite (hiPSC-CMs; 10 μM prodrug alone, 4 Hours): BLOQ
- Intracellular Concentration, NTP Metabolite (hiPSC-CMs; 10 μM prodrug alone, 4 Hours): BLOQ
- Intracellular Concentration, Prodrug (hiPSC-CMs; 10 μM prodrug alone, 30 Min): 89.8 ± 12.9 pmol/million cells
- Intracellular Concentration, Cleavage Intermediate Metabolite (hiPSC-CMs; 10 μM prodrug alone, 30 Min): BLOQ
- Intracellular Concentration, NTP Metabolite (hiPSC-CMs; 10 μM prodrug alone, 30 Min): BLOQ
- Bradycardia and bradyarrhythmia [1]: not observed
